Test results published in ChEMBL document CHEMBL5137070, “N-2-(Phenylamino) Benzamide Derivatives as Dual Inhibitors of COX-2 and Topo I Deter Gastrointestinal Cancers via Targeting Inflammation and Tumor Progression” (J Med Chem, 2022).
Calls of active or inactive are those of the source. The rule behind the calls is not given here.

Assays:
[1] = tested on: CT26.WT; test: Antiproliferative activity against mouse CT26.WT cells assessed as reduction in cell proliferation incubated for 48 hrs by MTT assay; assay type: functional, cell-based
[2] = tested on: RKO; test: Antiproliferative activity against human RKO cells assessed as reduction in cell proliferation incubated for 48 hrs by MTT assay; assay type: functional, cell-based
[3] = tested on: HT-29; test: Antiproliferative activity against human HT-29 cells assessed as reduction in cell proliferation incubated for 48 hrs by MTT assay; assay type: functional, cell-based; details: HT-29, 48 h
[4] = tested on: HGC-27; test: Antiproliferative activity against human HGC-27 cells assessed as reduction in cell proliferation incubated for 48 hrs by MTT assay; assay type: functional, cell-based; details: HGC-27, 48 h
[5] = tested on: SGC-7901; test: Antiproliferative activity against human SGC-7901 cells assessed as reduction in cell proliferation incubated for 48 hrs by MTT assay; assay type: functional, cell-based; details: SGC-7901, 48 h
[6] = molecular target: T1, DNA topoisomerase 1 (Homo sapiens) (UniProt P11387); test: Inhibition of human topoisomerase I assessed as DNA unwinding using DNA pBR322 as substrate at 2 uM incubated for 30 mins by ethidium bromide staining based agarose gel electrophoresis
T1 sequence (whole entry): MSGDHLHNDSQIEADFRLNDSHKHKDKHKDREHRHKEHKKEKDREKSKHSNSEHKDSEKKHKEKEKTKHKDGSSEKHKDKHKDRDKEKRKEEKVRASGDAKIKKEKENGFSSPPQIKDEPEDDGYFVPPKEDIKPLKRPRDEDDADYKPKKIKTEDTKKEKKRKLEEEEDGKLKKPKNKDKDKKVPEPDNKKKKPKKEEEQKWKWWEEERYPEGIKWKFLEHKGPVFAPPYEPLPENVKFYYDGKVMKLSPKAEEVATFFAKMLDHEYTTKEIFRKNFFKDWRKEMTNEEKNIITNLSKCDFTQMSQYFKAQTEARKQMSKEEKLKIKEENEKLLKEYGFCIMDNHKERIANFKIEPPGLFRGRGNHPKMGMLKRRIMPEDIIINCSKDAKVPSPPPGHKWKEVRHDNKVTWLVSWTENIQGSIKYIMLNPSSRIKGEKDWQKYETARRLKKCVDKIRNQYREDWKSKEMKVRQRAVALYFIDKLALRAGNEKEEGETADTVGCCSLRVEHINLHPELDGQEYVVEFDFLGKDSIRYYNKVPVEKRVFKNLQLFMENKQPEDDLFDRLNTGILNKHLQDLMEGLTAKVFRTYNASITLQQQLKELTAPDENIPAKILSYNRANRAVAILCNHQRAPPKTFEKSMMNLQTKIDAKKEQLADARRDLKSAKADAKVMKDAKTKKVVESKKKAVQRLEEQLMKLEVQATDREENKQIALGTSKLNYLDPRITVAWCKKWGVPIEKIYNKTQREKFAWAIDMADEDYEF

[7] = tested on: RKO; test: Anti-migration activity against human RKO cells assessed as inhibition of cell migration at 0.37 uM and measured after 24 hrs by wound healing assay; assay type: functional, cell-based
[8] = tested on: RAW264.7; test: Antiinflammatory activity in mouse RAW264.7 cells assessed as reduction in LPS-induced COX-2 expression at 6.6 uM incubated for 1 hrs followed by LPS stimulation and measured after 24 hrs by western blot analysis; assay type: functional, cell-based; details: time 25.0 hrs
[9] = tested on: RAW264.7; test: Cytotoxicity against mouse RAW264.7 cells assessed as reduction in cell viability at <=11.11 for 24 hrs by MTT assay; assay type: toxicity, cell-based; details: raw264.7, 24 h

| Structure (SMILES) | IC50 [1] [µM] | IC50 [2] [µM] | IC50 [3] [µM] | IC50 [4] [µM] | IC50 [5] [µM] | inhibition [6] [%] | Activity [7] | Activity [8] | Activity [9] [%] |
| --- | --- | --- | --- | --- | --- | --- | --- | --- | --- |
| Cc1c(Cl)cccc1Nc1ccccc1C(=O)NCc1ccc(O)cc1 | 10.5 | 8.32 | 13.5 | 34.2 | 21.1 | 35 |  |  |  |
| Cc1c(Cl)cccc1Nc1ccccc1C(=O)NCc1ccccc1O | > 100 | 32.7 | 51.4 | 46.9 | 38 | 15.2 |  |  |  |
| Cc1c(Cl)cccc1Nc1ccccc1C(=O)NCc1ccc(F)cc1 | > 100 | 62.4 | > 100 | 46.4 | 51.8 | 24.7 |  |  |  |
| O=C(NCCc1ccc(O)cc1)c1ccccc1Nc1ccccc1 | 67.8 | > 100 | 44.5 | 92.5 | 60.4 | 13.8 |  |  |  |
| COc1ccc(NC(=O)c2ccccc2Nc2cccc(Cl)c2C)cc1 | 11 | 3.69 | 5.97 | 2.32 | 5.75 | 2.55 | Active | Active |  |
| O=C(Nc1ccc(O)cc1)c1ccccc1Nc1ccccc1 | 52.8 | 66.7 | 72.9 | 74.8 | 61.4 | 8.56 |  |  |  |
| Cc1c(Cl)cccc1Nc1ccccc1C(=O)NCc1ccc(O)c(F)c1 | 11.6 | 5.23 | 26.3 | 12 | 60.8 | 44.7 |  |  |  |
| Cc1cccc(Nc2ccccc2C(=O)NCc2ccc(O)cc2)c1C | > 100 | 17.4 | 19.7 | 33.1 | 22.1 | 19.3 |  |  |  |
| O=C(NCc1ccc(O)cc1)c1ccccc1Nc1ccccc1 | > 100 | 69.9 | 50.9 | 54.8 | 61 | 37.3 |  |  |  |
| Cc1c(Cl)cccc1Nc1ccccc1C(=O)NCc1cccc(O)c1 | 8.52 | 6.97 | 33.6 | 2.41 | 8.92 | 37.4 |  |  |  |
| Cc1c(Cl)cccc1Nc1ccccc1C(=O)NCc1ccc(O)c(O)c1 | 9.64 | 59.4 | 19.5 | 16.5 | 59.7 | 55.3 |  |  |  |
| Cc1ccc(Nc2cccc(Cl)c2C)c(C(=O)NCc2ccc(O)c(F)c2)c1 | > 100 | 50.6 | 16.2 | 56.8 | 62.1 | 19.7 |  |  |  |
| Cc1c(Cl)cccc1N(C)c1ccccc1C(=O)NCc1ccc(O)c(F)c1 | > 100 | > 100 | 52.5 | 88.1 | 99.9 | 22.3 |  |  |  |
| OCc1ccc(O)cc1 [PARAHYDROXYBENZYL ALCOHOL] | > 100 | > 100 | > 100 | > 100 | > 100 |  |  |  |  |
| Cc1c(Cl)cccc1Nc1ccccc1C(=O)NCc1cccc2c1OCO2 | > 100 | 26.9 | 22.5 | 27.7 | 41.9 | 3.51 |  |  |  |
| O=C(NCc1ccc(O)cc1)c1ccccc1Nc1cccc(Cl)c1 | 38.3 | 24.9 | 43.8 | 26.4 | 32.7 | 26.7 |  |  |  |
| CC[C@@]1(O)C(=O)OCc2c1cc1n(c2=O)Cc2cc3ccccc3nc2-1 [CAMPTOTHECIN] | 0.43 | 0.0617 | 1.37 | 0.166 | 5.8 |  | Active |  |  |
| Cc1c(Cl)cccc1Nc1ccccc1C(=O)O [TOLFENAMIC ACID] | > 100 | > 100 | > 100 | > 100 | > 100 |  |  |  | > 80 |
| O=C(NCCCc1ccc(O)cc1)c1ccccc1Nc1ccccc1 | > 100 | > 100 | > 100 | > 100 | > 100 | 0 |  |  |  |
| Cc1ccc(Cl)c(Nc2ccccc2C(=O)NCc2ccc(O)cc2)c1Cl | 83.4 | 28.9 | 23.7 | 35.2 | 20.5 | 5.57 |  |  |  |
| Cc1c(Cl)cccc1Nc1ncccc1C(=O)NCc1ccc(O)cc1 | > 100 | 23.7 | 47.3 | 50.2 | 33.9 | 6.87 |  |  |  |
| Cc1c(Cl)cccc1Oc1ccccc1C(=O)NCc1ccc(O)cc1 | 36.8 | 101 | > 100 | 59.4 | 90.4 | 17.6 |  |  |  |
| Cc1c(Cl)cccc1N(C)c1ccccc1C(=O)NCc1ccc(O)cc1 | > 100 | > 100 | > 100 | 58 | 77.7 | 25.9 |  |  |  |
